From publication PMC6277434, “Discovery of a potent HMG-CoA reductase degrader that eliminates statin-induced reductase accumulation and lowers cholesterol” (Nature Communications, 2018)

Tests used:
[1] = biological target: T1, HMGCR (Cricetulus griseus, UniProt P00347); test: Immunoblotting of HMGCR in SRD-15 (Insig-1 and Insig-2-deficient) cells; assay type: cell-based, Chinese hamster; settings: SRD-15 cells
T1 construct: endogenous in cells; host or cells: CHO-7, CHG, SRD-13A, SRD-15
T1 sequence (P00347 1-887): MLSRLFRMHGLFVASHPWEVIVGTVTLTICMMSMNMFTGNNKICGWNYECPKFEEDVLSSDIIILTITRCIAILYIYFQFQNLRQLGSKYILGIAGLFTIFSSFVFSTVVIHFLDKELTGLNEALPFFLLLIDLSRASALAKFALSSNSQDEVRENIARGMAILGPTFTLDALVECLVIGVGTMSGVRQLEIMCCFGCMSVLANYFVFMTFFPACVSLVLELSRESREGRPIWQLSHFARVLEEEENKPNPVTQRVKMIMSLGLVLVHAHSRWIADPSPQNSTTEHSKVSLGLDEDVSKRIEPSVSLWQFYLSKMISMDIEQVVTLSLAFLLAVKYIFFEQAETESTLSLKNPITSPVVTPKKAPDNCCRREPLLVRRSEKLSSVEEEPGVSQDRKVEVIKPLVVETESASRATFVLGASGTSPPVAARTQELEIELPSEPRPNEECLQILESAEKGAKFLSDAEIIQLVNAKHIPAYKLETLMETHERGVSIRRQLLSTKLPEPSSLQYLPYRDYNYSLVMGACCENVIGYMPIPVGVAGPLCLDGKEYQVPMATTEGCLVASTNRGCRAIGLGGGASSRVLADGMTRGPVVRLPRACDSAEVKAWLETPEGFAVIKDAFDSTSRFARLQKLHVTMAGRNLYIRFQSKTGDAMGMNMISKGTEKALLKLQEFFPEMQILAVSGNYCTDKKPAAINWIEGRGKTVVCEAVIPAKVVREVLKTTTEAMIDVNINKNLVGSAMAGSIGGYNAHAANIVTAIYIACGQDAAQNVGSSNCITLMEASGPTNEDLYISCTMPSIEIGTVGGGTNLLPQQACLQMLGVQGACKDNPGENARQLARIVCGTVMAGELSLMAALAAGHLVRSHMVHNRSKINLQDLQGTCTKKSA
Protocol: CHO-7 (Chinese hamster ovary cell, a clone of CHO-K1 cell line selected for growth in LPDS) and Huh7 (a human hepatocellular carcinoma cell line), SRD-13A (a Scap-deficient CHO-7 cell line) and SRD-15 (an Insig-1 and Insig-2-deficient CHO-7 cell line) were generous gifts from Russell Debose-Boyd at UT Southwestern Medical Center, USA. All cells were grown in a monolayer at 37 °C with 5% CO2. Huh7 cells were maintained in medium A supplemented with 10% FBS. CHO-7 and SRD-15 cells were maintained in medium B supplemented with 5% FBS. SRD-13A cells were maintained in medium B with 5% FBS, 5 μg ml^−1 cholesterol, 1 mM sodium mevalonate, 10 μM sodium oleate. No cell lines used in this study were found in the database of commonly misidentified cell lines that is maintained by ICLAC and NCBI Biosample. […]
Cells were harvested and homogenized in the RIPA buffer (50 mM Tris-HCl, pH 8.0, 150 mM NaCl, 2 mM MgCl2, 1.5% NP-40, 0.1% SDS, and 0.5% sodium deoxycholate) supplemented with protease cocktail inhibitor, 10 μM MG-132, 10 μg ml^−1 leupeptin and 1 mM phenylmethylsulfonyl fluoride. The protein concentrations of lysates were determined using BCA method (Beyotime). […] Western blot images were captured by Amersham Imager 600 (GE Healthcare), and integrated optical intensities of each band were quantified by Image-Pro Plus 6 software (Media Cybernetics). […]

[2] = biological target: T2, HMGCR (TM1-8)-GFP (Cricetulus griseus, UniProt P00347)
T2 sequence (P00347 1-346): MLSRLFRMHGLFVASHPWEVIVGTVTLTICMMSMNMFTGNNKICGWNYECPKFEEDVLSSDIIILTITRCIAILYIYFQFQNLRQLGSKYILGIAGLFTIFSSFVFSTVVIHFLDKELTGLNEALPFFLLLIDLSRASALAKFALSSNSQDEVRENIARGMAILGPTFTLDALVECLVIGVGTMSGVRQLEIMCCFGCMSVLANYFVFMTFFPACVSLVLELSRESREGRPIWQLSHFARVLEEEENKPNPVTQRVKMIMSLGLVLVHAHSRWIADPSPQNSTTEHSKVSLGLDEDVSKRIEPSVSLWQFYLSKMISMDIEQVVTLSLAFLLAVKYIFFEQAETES

[3] = biological target: T1, HMGCR; test: Immunoblotting of HMGCR protein in SRD-13A (Scap-deficient CHO-7) cells; assay type: cell-based, Chinese hamster; settings: for HMGCR protein level, mean: SRD-13A, 16 h
Protocol: CHO-7 (Chinese hamster ovary cell, a clone of CHO-K1 cell line selected for growth in LPDS) and Huh7 (a human hepatocellular carcinoma cell line), SRD-13A (a Scap-deficient CHO-7 cell line) and SRD-15 (an Insig-1 and Insig-2-deficient CHO-7 cell line) were generous gifts from Russell Debose-Boyd at UT Southwestern Medical Center, USA. All cells were grown in a monolayer at 37 °C with 5% CO2. Huh7 cells were maintained in medium A supplemented with 10% FBS. CHO-7 and SRD-15 cells were maintained in medium B supplemented with 5% FBS. SRD-13A cells were maintained in medium B with 5% FBS, 5 μg ml^−1 cholesterol, 1 mM sodium mevalonate, 10 μM sodium oleate. No cell lines used in this study were found in the database of commonly misidentified cell lines that is maintained by ICLAC and NCBI Biosample. The cell lines have not been authenticated recently. No test for mycoplasma contamination was performed.
(§1) Cells were harvested and homogenized in the RIPA buffer (50 mM Tris-HCl, pH 8.0, 150 mM NaCl, 2 mM MgCl2, 1.5% NP-40, 0.1% SDS, and 0.5% sodium deoxycholate) supplemented with protease cocktail inhibitor, 10 μM MG-132, 10 μg ml^−1 leupeptin and 1 mM phenylmethylsulfonyl fluoride. The protein concentrations of lysates were determined using BCA method (Beyotime). Samples were mixed with the membrane protein solubilization buffer (62.5 mM Tris-HCl, pH 6.8, 15% SDS, 8 M urea, 10% glycerol, and 100 mM DTT) plus the 4× loading buffer (150 mM Tris-HCl, pH 6.8, 12% SDS, 30% glycerol, 6% 2-mercaptoethanol, and 0.02% bromophenol blue) and incubated for 30 min at 37 °C. Proteins were resolved by SDS-PAGE and transferred to nitrocellulose membranes (GE Healthcare). Immnoblots were blocked with 5% non-fat milk in TBS containing 0.075% Tween-20 (TBST) and probed with indicated antibodies overnight at 4 °C. After washing in TBST for five times, blots were incubated with HRP-conjugated secondary antibodies for 2 h at room temperature. Immunoreactivity was developed with Clarity Western ECL chemiluminescent substrates (170–5061, Bio-Rad). Western blot images were captured by Amersham Imager 600 (GE Healthcare), and integrated optical intensities of each band were quantified by Image-Pro Plus 6 software (Media Cybernetics). Uncropped blots are shown in Supplementary Figs. 9–13.

[4] = biological target: T3, WT HMGCR (Cricetulus griseus, UniProt P00347); test: Immunoblotting of overexpressed wild type HMGCR in Huh7 cells; assay type: cell-based; settings: 1 µM lovastatin
T3 construct: expressed in transfected cells; host or cells: Huh7
T3 sequence (P00347 1-887): T1 sequence (P00347 1-887)
Protocol: as §1, with “Uncropped blots are shown in Supplementary Figs. 9–13.” left out
RT-qPCR. Quantifications of the relative mRNA levels of indicated SREBP target […]

SMILES | Cmpd 81-induced disappearance of endogenous HMGCR in cells lacking Insig-1 and Insig-2 [1] | DC50 [2] | increase of HMGCR protein ([3]; SRD-13A cells, lovastatin 16 h) | HMGCR protein level, mean ([3]; lovastatin 0.001 uM) | HMGCR protein level, mean ([3]; lovastatin 0.003 uM) | HMGCR protein level, mean ([3]; lovastatin 0.01 uM) | HMGCR protein level, mean ([3]; lovastatin 0.03 uM) | HMGCR protein level, mean ([3]; lovastatin 0.1 uM) | HMGCR protein level, mean ([3]; lovastatin 0.3 uM) | HMGCR protein level, mean ([3]; lovastatin 1 uM) | HMGCR protein level, mean ([3]; lovastatin 3 uM) | HMGCR protein level, mean ([3]; lovastatin 10 uM) | elevation of overexpressed WT HMGCR protein [4]
C=CCC(O)(CC=C)CCCC(C)C1CCC2C3C(O)C=C4C(C)(C)C(O)CCC4(C)C3CCC12C (stereo not shown) [Cmpd 81] | completely abolished | 410 nM |  |  |  |  |  |  |  |  |  |  | 
CC[C@H](C)C(=O)O[C@H]1C[C@@H](C)C=C2C=C[C@H](C)[C@H](CC[C@@H]3C[C@@H](O)CC(=O)O3)[C@H]21 [Lovastatin, lovastatin] |  |  | ≤ 8 fold | 0.9418 | 1.178 | 2.758 | 4.962 | 7.087 | 7.139 | 8.174 | 8.262 | 7.249 | 6 fold
